Reference: paper PMC5033595, “The Effectiveness of Natural Diarylheptanoids against Trypanosoma cruzi: Cytotoxicity, Ultrastructural Alterations and Molecular Modeling Studies” (PLoS ONE, 2016)
Read-outs that look alike come from different tables or passages of the source.

Columns and labels:
[1] = system: T. cruzi epimastigotes (Dm28c strain); experiment: Flow cytometry analysis of the cell cycle (DNA content); assay type: cell-based, Trypanosoma cruzi; conditions: 48 h
Method: The cultures treated with CUR, DMC and BDMC at a concentration of 100 μM led to an accumulation of, respectively, 45%, 52% and 40% of cells in the G2 phase, while in the non-treated cells, G2 population was 20%. The ability to arrest cells in the G2/M phase is a characteristic of microtubule-interacting agents. For this reason, we used paclitaxel as positive control, a known microtubule drug that is active against Trypanosomatidae organisms. Consistently with its action on microtubules, paclitaxel promoted an accumulation of 57% of cells in the G2 phase (Fig 9). Thus, the effects of curcuminoids in the cell cycle can be explained, at least partially, by the disturbance of microtubules, in agreement with the mechanism of interaction with tubulin proposed by the electron microscopy experiments. The arising of sub-G1 peaks possibly correspond to apoptotic cells, what is more prominent in paclitaxel than in the curcuminoids treated cultures and the small sub-G1populations indicate that curcuminoids promote low apoptosis (Fig 9).
Fig 9 Percentage of cells in different phases of cell cycle. Cells were treated with CUR and DMC at 10, 50 and 100 μM concentrations and with 100 μM BDMC. Paclitaxel (20 μM) was employed as positive control, and DMSO 0.02% as negative control. Results are the mean of the triplicates with standard deviation represented by error bars. Statistical significance relative to control * P<0.05, ** P<0.01 and *** P<0.001. The data shown were obtained from three independent experiments.
Epismatigotes forms of T. cruzi (Dm28c strain) were grown at 28°C in BHI medium at a concentration of 2x10^6 cells.mL^-1 in 12-well culture plates (TPP™, Switzerland). Test compounds (CUR, DMC and BMDC) were added in triplicate at concentrations of 10, 50 and 100 μM. The controls used were the vehicle (DMSO 0.02%) and paclitaxel at 20 μM concentration. After 48 h of incubation, parasites were fixed in ethanol 70% for 30 min at -20°C. Next, cells were centrifuged at 200 rcf for 8 min and washed with PBS. Then, the samples were incubated for 10 min with a permeabilization buffer (0.2 M Na2HPO4 and 0.005% Triton-X, pH 7.8). Finally, cells were centrifuged at 200 rcf for 8 min and stained in a solution of 50 μg.mL^-1 propidium iodide (PI) and 0.2 μg.mL^-1 RNAse for 30 min at room temperature. DNA content was analyzed measuring PI fluorescence in a BD […] cytometer (Becton Dickinson Company, USA) at 488 nm excitation wavelength and 585/40 nm emission filter.
Supplementary file pone.0162926.s006.tif: S6 Fig Representative fluorescence histograms showing DNA content of cell-cycle phases (Sub-G1, G1, S and G2) of parasites (Dm28c strain). […]

[2] = system: T. cruzi epimastigotes (Dm28c strain); experiment: Anti-epimastigote effect (proliferation/survival, counting of viable forms); assay type: cell-based, Trypanosoma cruzi; conditions: for activity on proliferation/survival of epimastigotes (in words): 100, 50, 25 and 2 μM; for IC50: read-out: IC50 T. cruzi
Method: The four natural compounds (CUR, DMC, BDMC and CC) were evaluated on the proliferation/survival of T. cruzi epimastigotes (Dm28c strain) in four different concentrations (100, 50, 25 and 2 μM). The parasites were cultivated for 7 days in BHI (Brain Heart Infusion) medium supplemented with 10% (v/v) fetal bovine serum. Controls were incubated solely and with 0.02% DMSO and the cultures were readily incubated with the natural compounds. Mobile epimastigote forms were considered as viable forms, and were counted on Neubauer chambers using phase contrast microscopy.
Epimastigotes of T. cruzi (Dm28c strain) were cultured at 27°C in Bacto™ Brain Heart infusion (BHI, Becton Dickinson Company, USA) supplemented with 10 μg.mL^-1 hemin, 0.02 g.L^-1 folic acid (from Sigma-Aldrich, USA) and 10% (v/v) of heat inactivated fetal bovine serum (FCS, Gibco/Life technologies).
Epimastigotes forms of T. cruzi, Dm28c strain (2x10^5 cells.mL^-1), were grown for 7 days in BHI culture medium at 26°C. Some cultures were treated with curcumin (CUR), demethoxycurcumin (DMC), bisdemethoxycurcumin (BDMC) or cyclocurcumin (CC) at concentrations of 100, 50, 25 and 2 μM. Viable forms were counted in Neubauer chambers under phase contrast microscopy using 40X objectives. Data representing three independent experiments.
Supplementary file pone.0162926.s002.tif: S2 Fig T. cruzi epimastigotes (Dm28c strain) were cultivated for 7 days in BHI (Brain Heart Infusion) culture medium supplemented with hemin, folic acid and 10% fetal bovine serum at 26°C, and readily treated with CUR, DMC, BDMC and CC at the indicated concentrations ranging from 2 to 100μM. Viable forms were counted on Neubauer chambers under phase microscopy at the seventh day. The data presented were obtained from three representative independent experiments. (TIF) Click here for additional data file.

MCF-7 tumor cells = system: MCF-7 tumor cells; set-up: method as in PMID 9714342; conditions: cited from earlier work
[3] = system: Sterol 14α-demethylase (CYP51); experiment: Sterol content (lanosterol/ergosterol ratio) of treated epimastigotes by RP-HPLC; assay type: cell-based, Trypanosoma cruzi
Method: Since the detachment of the flagellar membrane was reported in T. cruzi and L. amazonensis treated with sterol biosynthesis inhibitors, the results obtained in microscopy study led us to investigate the sterol content of epimastigotes treated with CUR. Sterol 14α-demethylase (CYP51) is the enzyme involved in conversion of lanosterol to ergosterol in the parasite cell by oxidative removal of the sterol 14α-methyl group, being a key step in the biosynthesis of cell membrane 14 α-demethylated sterols and consequently in the maintenance of the cell viability. Thus, this enzyme is a promising target for chemotherapy of Chagas disease. The method reported by Pinto and co-workers for steroid determination on fungi was adapted to T. cruzi epimastigotes. After saponification followed by n-hexane extraction of a T. cruzi epimastigote pellet cultivated in the presence of two different concentrations of CUR, the organic layer was concentrated and submitted to RP-HPLC analysis (as shown in S5 Fig). […] It seems that in both treatments the parasite membrane-cytoskeleton linkage has been compromised.
6x10^6 epimastigotes of T. cruzi (Dm28c strain) were grown for 7 days in 30mL of BHI culture medium at 26°C. Some cultures were treated with curcumin (CUR, 5 and 10 μM), posaconazole (0.05 and 0.1 μM). The cultures were submitted to centrifugation at 2100 rpm for 10 minutes. […]

Splenocytes = assay type: cell-based; conditions: murine splenocytes, 48 h, trypan blue
Method: (§1) The natural products have been subjected to a cytotoxicity assay on two distinct murine cell types. These compounds were tested upon macrophages (Mø), which are host cells during T. cruzi infection and splenocytes as lymphocytes are highly sensitive to external agents. The maintenance of cell viability at presence of the curcuminoids may indicate their low toxicity to mammalian cells. Peritoneal macrophages harvested from Balb/c mice were treated for 48 hours with concentrations of each test substance (S3 Fig). Splenocyte viability assays were performed in cells obtained from BALB/c mice and grown from a 5x10^5 cells.mL^-1 suspension (S4 Fig). For both cell types, viability was assessed by the trypan blue dye exclusion method, because colorimetric methods such as XTT were not suitable due to influence of the curcumin chromophoric properties. […]
Splenic lymphocytes were obtained from male BALB/c mice and plated at 5x10^5 cells.mL^-1 in triplicate. […] Viability was evaluated by the exclusion method using trypan blue and the data shown is representative of three independent experiments.
Supplementary file pone.0162926.s004.tif: S4 Fig Lymphocytes were obtained from the spleen of BALB/c mice and cultivated at concentration of 5x10^5 cells.mL^-1. […] Cell viability was assessed by exclusion method using trypan blue. […]

[4] = system: Peritoneal macrophages (Mø); assay type: cell-based; conditions: murine peritoneal macrophages, 48 h, trypan blue
Method: as §1, with “properties. The results obtained on the evaluation of CUR, DMC, BDMC and CC against T. cruzi epimastigotes as well as the results of two host cell types treated with a 100 μM concentration of each compound are summarized in Table 1.” for “properties.”
Supplementary file pone.0162926.s003.tif: S3 Fig Peritoneal macrophages obtained from BALB/c mice were cultured in triplicates at concentration of 5x10^5cells.mL^-1. […] Cell viability was assessed by exclusion method using trypan blue. […]

[5] = Trypanosoma cruzi, 168 h, epimastigotes, Dm28c strain, 7 days

Row | Compound | cells in the G2 phase ([1]; 100 μM, non-treated cells 20%) [%] | activity on proliferation/survival of epimastigotes (in words) ([2]; 7 days) | IC50 [2, 5] [µM] | also measured
1 | O=C(/C=C/c1ccc(O)cc1)CC(=O)/C=C/c1ccc(O)cc1 [BDMC, bisdemethoxycurcumin] | 40 | active | 45.3 | 
2 | COc1cc(/C=C/C2=CC(=O)CC(c3ccc(O)c(OC)c3)O2)ccc1O (centres unmarked) [CC, cyclocurcumin] |  | inactive | > 100 | inhibition of MCF-7 tumor cells proliferation (MCF-7 tumor cells): inactive
3 | COc1cc(/C=C/C(=O)CC(=O)/C=C/c2ccc(O)c(OC)c2)ccc1O [CUR, Curcumin] | 45 | active |  | lanosterol/ergosterol ratio vs untreated control ([3]; CUR 5 and 10 μM, 7 days): no significant difference; IC50 ([2]; Trypanosoma cruzi, 168 h): 10.1 µM
4 | CC(=O)O[C@H]1C(=O)[C@@]2(C)[C@H]([C@H](OC(=O)c3ccccc3)[C@]3(O)C[C@H](OC(=O)[C@H](O)[C@@H](NC(=O)c4ccccc4)c4ccccc4)C(C)=C1C3(C)C)[C@]1(OC(C)=O)CO[C@@H]1C[C@@H]2O [paclitaxel, reference compound] |  |  |  | cells in the G2 phase ([1]; 20 μM, positive control): 57%
5 | CC[C@@H]([C@H](C)O)n1ncn(-c2ccc(N3CCN(c4ccc(OC[C@@H]5CO[C@@](Cn6cncn6)(c6ccc(F)cc6F)C5)cc4)CC3)cc2)c1=O [posaconazole, reference compound] |  |  |  | lanosterol/ergosterol ratio vs untreated control ([3]; posaconazole 0.05 and 0.1 μM, positive control): significant increase
6 | demethoxycurcumin [DMC] | 52 | active |  | LD50 Splenocytes (Splenocytes): > 100 µM; LD50 Mø [4]: > 100 µM; IC50 ([2]; epimastigotes, Dm28c strain, 7 days): 11.1 µM
